Data on 16 molecules can be found in US9120791B2, “Indolizine compounds, a process for their preparation and pharmaceutical compositions containing them” (LES LABORATOIRES SERVIER, priority 2012, dated 2015).

Counter-ions that a name gives are not always drawn. Like-named read-outs stand apart in the source and are kept apart here.

One assay deals with caspase 3. As to the kind of experiment: Induction of caspase activity in vivo (DEVDase activity in tumour lysates, RS4;11 xenograft). Set-up: species or system mice (SCID strain). The following applies: oral treatment, 16 hours after treatment, RS4;11 xenograft in SCID mice; for Activation factor (versus control), DEVDase activity in the tumours / fold induction at 50 mg/kg: 50 mg/kg. The procedure: The ability of the compounds of the invention to activate caspase 3 is evaluated in a xenograft model of RS4;11 leukaemia cells.
1×10^7 RS4;11 cells are grafted sub-cutaneously into immunosuppressed mice (SCID strain). 25 to 30 days after the graft, the animals are treated orally with the various compounds. Sixteen hours after treatment, the tumour masses are recovered and lysed, and the caspase 3 activity is measured in the tumour lysates.
This enzymatic measurement is carried out by assaying the appearance of a fluorigenic cleavage product (DEVDase activity, Promega). It is expressed in the form of an activation factor corresponding to the ratio between the two caspase activities:the activity for the treated mice divided by the activity for the control mice.

Assay [1] concerns RS4;11 leukaemia tumour line. Put plainly: In vitro cytotoxicity (Microculture Tetrazolium Assay, 48 hours). It is filed as cell-based. The note with it: RS4;11 cells, 48 hours exposure, MTT, concentration that inhibits cell viability by 50%, read-out: IC50 (nM) MTT RS4. On the procedure:
The cytotoxicity studies were carried out on the RS4;11 leukaemia tumour line.
The cells are distributed onto microplates and exposed to the test compounds for 48 hours.

The target of the next assay is Bcl-2 protein (Homo sapiens (Human), UniProt P10415). As to the kind of experiment: Inhibition of Bcl-2 by the fluorescence polarisation technique. The format is binding. The following applies: fluorescence polarisation test; concentration that inhibits fluorescence polarisation by 50%; read-out: IC50 (nM) Bcl-2 FP. The procedure:
The fluorescence polarisation tests were carried out on microplates (384 wells). […] After incubation for 2 hours, the fluorescence polarisation is measured.
(Fluorescence polarisation rises when a labelled molecule tumbles more slowly, as on binding a larger partner.)

Where [2] appears, read: Mus musculus, read-out: Activation factor (versus control), DEVDase activity in the tumours.

Sequence of Bcl-2 protein (P10415 whole entry): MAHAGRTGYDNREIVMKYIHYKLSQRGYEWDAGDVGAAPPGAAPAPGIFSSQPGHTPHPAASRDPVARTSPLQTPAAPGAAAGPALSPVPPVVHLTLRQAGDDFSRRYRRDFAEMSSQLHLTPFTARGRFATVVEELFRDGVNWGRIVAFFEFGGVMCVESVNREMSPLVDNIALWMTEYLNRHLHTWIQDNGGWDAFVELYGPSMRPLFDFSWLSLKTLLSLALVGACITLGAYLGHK

The IC50 is the concentration needed to halve the response being measured. Turning to `Cc1ccc(N(C(=O)c2cc(-c3cc4c(cc3C(=O)N3Cc5ccccc5C[C@H]3CN3CCOCC3)OCO4)n3c2CCCC3)c2ccc(O)cc2)cc1` [Example 2, N-(4-Hydroxyphenyl)-N-(4-methylphenyl)-3-{6-[((3S)-3-(4-morpholinylmethyl)-3,4-dihydro-2(1H)-isoquinolinyl)carbonyl]-1,3-benzodioxol-5-yl}-5,6,7,8-tetrahydro-1-indolizine carboxamide hydrochloride], the fold induction at 100 mg/kg with caspase 3 (Mus musculus, 100 mg/kg, read-out: Activation factor (versus control), DEVDase activity in the tumours) turned out to be 27.8. The results for the IC50 (in assay [1] (Homo sapiens); at Bcl-2 protein) were 49.8 nM and 20 nM, respectively.
With `Cl.O=C(c1cc(-c2cc3c(cc2C(=O)N2Cc4ccccc4C[C@H]2CN2CCOCC2)OCO3)n2c1CCCC2)N(c1ccc(O)cc1)c1ccc(Cl)cc1` [Example 3, N-(4-Chlorophenyl)-N-(4-hydroxyphenyl)-3-{6-[((3S)-3-(4-morpholinylmethyl)-3,4-dihydro-2(1H)-isquinolinyl)carbonyl]-1,3-benzdioxol-5-yl}-5,6,7,8-tetrahydro-1-indolizine carboxamide hydrochloride], the “Activation factor (versus control), DEVDase activity in the tumours” value in the assay on caspase 3 is 5.7 (50 mg/kg). The concentration for half-maximal inhibition (IC50) in assay [1] came to 44.7 nM.
`Cc1ccc(N(C(=O)c2cc(-c3cc4c(cc3C(=O)N3Cc5ccccc5C[C@H]3CN3CCOCC3)OCO4)n3c2CCCC3)c2ccc(O)cc2)cc1F` [Example 4, N-(3-Fluoro-4-methylphenyl)-N-(4-hydroxyphenyl)-3-{6-[((3S)-3-(4-morpholinylmethyl)-3,4-dihydro-2(1H)-isoquinolinyl)carbonyl]-1,3-benzodioxol-5-yl}-5,6,7,8-tetrahydro-1-indolizine carboxamide hydrochloride]: the fold induction at 50 mg/kg in the assay on caspase 3 (setting [2]) was found to be 29.2. For the same molecule, the half-inhibitory concentration (IC50) in assay [1] (Homo sapiens) was found to be 27.1 nM; on Bcl-2 protein it was 19 nM.
For `O=C(c1cc(-c2cc3c(cc2C(=O)N2Cc4ccccc4C[C@H]2CN2CCOCC2)OCO3)n2c1CCCC2)N(c1ccc(O)cc1)c1ccc2c(c1)CCN2` [Example 8, N-(2,3-Dihydro-1H-indol-5-yl)-N-[4-(hydroxy)phenyl]-3-{6-[((3S)-3-(4-morpholinylmethyl)-3,4-dihydro-2(1H)-isoquinolinyl)carbonyl]-1,3-benzodioxol-5-yl}-5,6,7,8-tetrahydro-1-indolizine carboxamide bis(hydrochloride)] the same measures were 9.8, 25.6 nM and 15 nM.
For `CN1CCc2cc(N(C(=O)c3cc(-c4cc5c(cc4C(=O)N4Cc6ccccc6C[C@H]4CN4CCOCC4)OCO5)n4c3CCCC4)c3ccc(O)cc3)ccc21` [Example 9, N-[4-(Hydroxy)phenyl]-N-(1-methyl-2,3-dihydro-1H-indol-5-yl)-3-{6-[((3S)-3-(4-morpholinylmethyl)-3,4-dihydro-2(1H)-isoquinolinyl)carbonyl]-1,3-benzodioxol-5-yl}-5,6,7,8-tetrahydro-1-indolizine carboxamide hydrochloride] the same measures were 20.6, 16.1 nM and 13 nM.
As to `Cl.O=C(c1cc(-c2cc3c(cc2C(=O)N2Cc4ccccc4C[C@H]2CN2CCOCC2)OCO3)n2ccccc12)N(c1ccccc1)c1ccc(O)cc1` [Example 58, N-(4-Hydroxyphenyl)-3-{6-[((3S)-3-(4-morpholinylmethyl)-3,4-dihydro-2(1H)-isoquinolinyl)carbonyl]-1,3benzodioxol-5-yl}-N-phenyl-indolizine carboxamide hydrochloride], in the assay on caspase 3, the “Activation factor (versus control), DEVDase activity in the tumours” value is recorded as 23.3 (50 mg/kg). The half-maximal inhibitory concentration (IC50) in assay [1] worked out at 40.1 nM.
For the molecule `CS(=O)(=O)N1CCN(C[C@@H]2Cc3ccccc3CN2C(=O)c2cc3c(cc2-c2cc(C(=O)N(c4ccccc4)c4ccc(O)cc4)c4n2CCCC4)OCO3)CC1` [Example 123, N-(4-Hydroxyphenyl)-3-(6-{[(3S)-3-{[4-(methylsulphonyl)piperazin-1-yl]methyl}-3,4-dihydroisoquinolin-2(1H)-yl]carbonyl}-1,3-benzodioxol-5-yl)-N-phenyl-5,6,7,8-tetrahydroindolizine-1-carboxamide hydrochloride], the half-inhibitory concentration (IC50) in assay [1] (Homo sapiens) is 92.1 nM; at Bcl-2 protein, 22 nM.
For the molecule `COc1cccc(N(C(=O)c2cc(-c3cc(Cl)ccc3C(=O)N3Cc4ccccc4C[C@H]3CN3CCOCC3)n3c2CCCC3)c2ccc(O)cc2)c1` [Example 124, 3-(5-Chloro-2-{[(3S)-3-(morpholin-4-ylmethyl)-3,4-dihydroisoquinolin-2(1H)-yl]carbonyl}phenyl)-N-(4-hydroxyphenyl)-N-(3-methoxyphenyl)-5,6,7,8-tetrahydroindolizine-1-carboxamide hydrochloride], the IC50 in assay [1] (Homo sapiens) is 101 nM; at Bcl-2 protein it was 28 nM.
Taken in the same sequence, the figures for `O=C(c1cc(-c2cc(Cl)ccc2C(=O)N2Cc3ccccc3C[C@H]2CN2CCOCC2)n2c1CCCC2)N(c1ccc(O)cc1)c1cc(F)cc(F)c1` [Example 125, 3-(5-Chloro-2-{[(3S)-3-(morpholin-4-ylmethyl)-3,4-dihydroisoquinolin-2(1H)-yl]carbonyl}phenyl)-N-(3,5-difluorophenyl)-N-(4-hydroxyphenyl)-5,6,7,8-tetrahydroindolizine-1-carboxamide hydrochloride] were 81.8 nM and 38 nM.
Taken in the same sequence, the figures for `Cc1cccc(N(C(=O)c2cc(-c3cc(Cl)ccc3C(=O)N3Cc4ccccc4C[C@H]3CN3CCOCC3)n3c2CCCC3)c2ccc(O)cc2)c1` [Example 126, 3-(5-Chloro-2-{[(3S)-3-(morpholin-4-ylmethyl)-3,4-dihydroisoquinolin-2(1H)-yl]carbonyl}phenyl)-N-(4-hydroxyphenyl)-N-(3-methylphenyl)-5,6,7,8-tetrahydroindolizine-1-carboxamide hydrochloride] were 115 nM and 26 nM.
For `O=C(c1cc(-c2cc3c(cc2C(=O)N2Cc4ccccc4C[C@H]2CN2CCN(CC(F)(F)F)CC2)OCO3)n2c1CCCC2)N(c1ccccc1)c1ccc(O)cc1` [Example 127, N-(4-Hydroxyphenyl)-N-phenyl-3-(6-{[(3S)-3-{[4-(2,2,2-trifluoroethyl)-piperazin-1-yl]methyl}-3,4-dihydroisoquinolin-2(1H)-yl]carbonyl}-1,3-benzodioxol-5-yl)-5,6,7,8-tetrahydroindolizine-1-carboxamide hydrochloride] the same measures were 129 nM and 26 nM.
With `CN1CCN(C[C@@H]2Cc3ccccc3CN2C(=O)c2cc3c(cc2-c2cc(C(=O)N(c4ccccc4)c4ccc(O)cc4)c4n2CCCC4)OCO3)CC1=O` [Example 128, N-(4-Hydroxyphenyl)-3-(6-{[(3S)-3-[(4-methyl-3-oxopiperazin-1-yl)methyl]-3,4-dihydroisoquinolin-2(1H)-yl]carbonyl}-1,3-benzodioxol-5-yl)-N-phenyl-5,6,7,8-tetrahydroindolizine-1-carboxamide hydrochloride], the IC50 in assay [1] (Homo sapiens) is 63.4 nM; at Bcl-2 protein, 10 nM.
Turning to `N#Cc1ccc(N(C(=O)c2cc(-c3cc(Cl)ccc3C(=O)N3Cc4ccccc4C[C@H]3CN3CCOCC3)n3c2CCCC3)c2ccc(O)cc2)cc1` [Example 129, 3-(5-Chloro-2-{[(3S)-3-(morpholin-4-ylmethyl)-3,4-dihydroisoquinolin-2(1H)-yl]carbonyl}phenyl)-N-(4-cyanophenyl)-N-(4-hydroxyphenyl)-5,6,7,8-tetrahydroindolizine-1-carboxamide hydrochloride], the figures for the IC50 (in assay [1] (Homo sapiens); on Bcl-2 protein) were 46.7 nM and 9 nM, respectively.
Regarding `O=C(c1cc(-c2cc(Cl)ccc2C(=O)N2Cc3ccccc3C[C@H]2CN2CCOCC2)n2c1CCCC2)N(c1ccc(O)cc1)c1cccc(Cl)c1` [Example 131, 3-(5-Chloro-2-{[(3S)-3-(morpholin-4-ylmethyl)-3,4-dihydroisoquinolin-2(1H)-yl]carbonyl}phenyl)-N-(3-chlorophenyl)-N-(4-hydroxyphenyl)-5,6,7,8-tetrahydroindolizine-1-carboxamide hydrochloride], the half-inhibitory concentration (IC50) in assay [1] (Homo sapiens) worked out at 88.4 nM; on Bcl-2 protein, 30 nM.
For `N#Cc1ccccc1N(C(=O)c1cc(-c2cc(Cl)ccc2C(=O)N2Cc3ccccc3C[C@H]2CN2CCOCC2)n2c1CCCC2)c1ccc(O)cc1` [Example 134, 3-(5-Chloro-2-{[(3S)-3-(morpholin-4-ylmethyl)-3,4-dihydroisoquinolin-2(1H)-yl]carbonyl}phenyl)-N-(2-cyanophenyl)-N-(4-hydroxyphenyl)-5,6,7,8-tetrahydroindolizine-1-carboxamide hydrochloride] the same measures were 305 nM and 37 nM.
For the molecule “Tert-butyl 8-{[4-hydroxy(1-methyl-1H-indol-5-yl)anilino]carbonyl}-6-{6-[((3S)-3-(4-morpholinylmethyl)-3,4-dihydro-2(1H)-isoquinolinyl)carbonyl]-1,3-benzodioxol-5-yl}-3,4-dihydropyrrolo[1,2-a]pyrazine-2(1H)-carboxylate [Example 72]”, the half-inhibitory concentration (IC50) in assay [1] was determined as 270 nM; on Bcl-2 protein, 220 nM.
